Measured values from patent US10385065B2, “Antibacterial compounds” (priority 2014, dated 2019).
Values after ≈ are worked out from the molar mass of the structure shown. Where two headings read alike, the source gives them in different places.

Tests used:
Format in all cases: cell-based
[1] = system: human hepatic cell line (HepG2 ATCC HB-8065); experiment: Human cell viability assay (CellTiter-Glo), HepG2; details: HepG2, 24 h incubation, tested over 1-128 μg/mL, read-out: IC50 values against HepG2
Protocol: Compounds are assessed for potential non-specific cytotoxic effects against a human hepatic cell line (HepG2 ATCC HB-8065). HepG2 cells are seeded at 20,000 cells/well in 96-well microtitre plates in minimal essential medium (MEM) supplemented with a final concentration of 10% FBS and 1 mM sodium pyruvate. After 24 h compound dilutions are prepared in Dulbecco's minimum essential media (DMEM) supplemented with final concentrations of 0.001% FBS, 0.3% bovine albumin and 0.02% HEPES and added to cells. Compounds are tested in two-fold serial dilutions over a final concentration range of 1-128 μg/mL in a final DMSO concentration of 1% vol/vol. Chlorpromazine is used as a positive control. Cells are incubated with compound at 37° C. and 5% CO2 for a further 24 h, after which time the CellTiter-Glo reagent (Promega) is added. Luminescence is measured on a BMG Omega plate reader. Data are analysed using GraphPad Prism software to determine the concentration of compound that inhibits cell viability by fifty percent (IC50).

[2] = system: Escherichia coli ATCC 25922; experiment: MIC, broth microdilution, E. coli ATCC 25922; details: ATCC25922, Table 1, wild type strain
[3] = system: Enterococcus faecium ATCC 19434; experiment: MIC, E. faecium ATCC 19434; details: ATCC19434, Table 2
[4] = system: S. aureus NRS482 MRSA FQ resistant; experiment: MIC, S. aureus NRS482; details: Staphylococcus aureus; Table 2
[5] = system: Staphylococcus aureus ATCC 29213; experiment: MIC, broth microdilution, S. aureus ATCC 29213
S. aureus NRS1 MRSA = experiment: MIC, S. aureus NRS1; details: Staphylococcus aureus; Table 2; read-out: MIC S. aureus NRS1 MRSA AMG & TET resistant
[6] = system: S. aureus VRS1 MRSA VAN resistant; experiment: MIC, S. aureus VRS1; details: Staphylococcus aureus, Table 2
[7] = system: Haemophilus influenzae ATCC 49247; experiment: MIC, H. influenzae ATCC 49247; details: ATCC49247, Table 4
[8] = system: S. epidermidis NRS101 MRSE; experiment: MIC, S. epidermidis NRS101; details: Staphylococcus epidermidis; Table 2; read-out: MIC S. epidermidis NRS101 MRSE AMG, ERY resistant
[9] = system: S. aureus (MRSA) ATCC 43300; experiment: MIC, S. aureus ATCC 43300; details: Staphylococcus aureus; Table 2; read-out: MIC S. aureus (MRSA) ATCC 43300 Heterogeneous MRSA strain
[10] = system: S. aureus NRS127 MRSA LZD resistant; experiment: MIC, S. aureus NRS127; details: Staphylococcus aureus; Table 2
[11] = system: S. aureus SACPX1-SP25 MSSA - FQ resistant; experiment: microbe, parasite or virus in culture; details: Staphylococcus aureus, ATCC 29213 / MSSA, read-out: MIC S. aureus SACPX1-SP25 MSSA - FQ resistant (isogenic mutant of ATCC 29213)
[12] = ATCC29213, Table 1, wild type strain, read-out: MIC S. aureus ATCC 29213
[13] = ATCC 29213 / MSSA, Table 2, read-out: MIC S. aureus (MSSA) ATCC 29213 CLSI control strain

Row | Structure (SMILES) | MIC [2] [µg/mL] | MIC [3] [µg/mL] | MIC [4] [µg/mL] | MIC [5, 12] [µg/mL] | MIC [5, 13] [µg/mL] | MIC (S. aureus NRS1 MRSA) [µg/mL] | MIC [6] [µg/mL] | MIC [7] [µg/mL] | MIC [8] [µg/mL] | MIC [9] [µg/mL] | MIC [10] [µg/mL] | IC50 [1] [µg/mL] | MIC [11] [µg/mL]
1 | Cc1nc2c(=O)n(C3CC3)c3c(C)c(-c4cc(F)c(N)cc4F)ccc3c2o1 [Compound 4, 7-(4-amino-2,5-difluoro-phenyl)-5-cyclopropyl-2,6-dimethyl-oxazolo[4,5-c]quinolin-4-one] | 1 to 10 (≈ 2.62 to 26.2 µM) | > 100 | < 1 | < 1 | < 1 | 1 to 10 (≈ 2.62 to 26.2 µM) | < 1 | < 1 |  | < 1 | < 1 | 10 to 100 (≈ 26.2 to 262 µM) | < 1
2 | Cc1c(-c2ccc(N)c(F)c2)ccc2c3ocnc3c(=O)n(C3CC3)c12 [Compound 38, 7-(4-amino-3-fluorophenyl)-5-cyclopropyl-6-methyl-oxazolo[4,5-c]quinolin-4-one] | 1 to 10 (≈ 2.86 to 28.6 µM) | > 100 | 1 to 10 (≈ 2.86 to 28.6 µM) | < 1 | < 1 |  |  | < 1 |  |  |  | > 100 | < 1
3 | CCn1c(=O)c2ncoc2c2ccc(-c3cc(F)c(N)cc3F)c(C)c21 [Compound 2, 7-(4-amino-2,5-difluoro-phenyl)-5-ethyl-6-methyl-oxazolo[4,5-c]quinolin-4-one] | > 100 | > 100 | 1 to 10 (≈ 2.81 to 28.1 µM) | 1 to 10 (≈ 2.81 to 28.1 µM) | 1 to 10 (≈ 2.81 to 28.1 µM) |  |  | 10 to 100 (≈ 28.1 to 281 µM) |  |  |  | 10 to 100 (≈ 28.1 to 281 µM) | 1 to 10 (≈ 2.81 to 28.1 µM)
4 | C[C@H]1COc2c(-c3ccc(N)nc3)ccc3c4ocnc4c(=O)n1c23 [Compound 95, (-2S)-6-(6-aminopyridin-3-yl)-2-methyl-4,11-dioxa-1,13-diazatetracyclo[7.6.1.0^5,^16.0^10,^14]hexadeca-5(16),6,8,10(14),12-pentaen-15-one] | 1 to 10 (≈ 2.99 to 29.9 µM) | 10 to 100 (≈ 29.9 to 299 µM) | 1 to 10 (≈ 2.99 to 29.9 µM) | 1 to 10 (≈ 2.99 to 29.9 µM) | 1 to 10 (≈ 2.99 to 29.9 µM) | 1 to 10 (≈ 2.99 to 29.9 µM) | 1 to 10 (≈ 2.99 to 29.9 µM) | < 1 | 1 to 10 (≈ 2.99 to 29.9 µM) | 1 to 10 (≈ 2.99 to 29.9 µM) | 1 to 10 (≈ 2.99 to 29.9 µM) | > 100 | 
5 | Cc1c(-c2cnc(N)nc2)ccc2c3ocnc3c(=O)n(C3CC3)c12 [Compound 14, 7-(2-aminopyrimidin-5-yl)-5-cyclopropyl-6-methyl-oxazolo[4,5-c]quinolin-4-one] | 10 to 100 (≈ 30 to 300 µM) | > 100 | 1 to 10 (≈ 3 to 30 µM) | < 1 | < 1 | 1 to 10 (≈ 3 to 30 µM) |  | 1 to 10 (≈ 3 to 30 µM) |  | 1 to 10 (≈ 3 to 30 µM) |  | 10 to 100 (≈ 30 to 300 µM) | 1 to 10 (≈ 3 to 30 µM)
6 | Nc1cc(F)c(-c2cc3c(cc2F)c2ocnc2c(=O)n3C2CC2)cc1F [Compound 69, 7-(4-amino-2,5-difluoro-phenyl)-5-cyclopropyl-8-fluoro-oxazolo[4,5-c]quinolin-4-one] | 1 to 10 (≈ 2.69 to 26.9 µM) | > 100 | 1 to 10 (≈ 2.69 to 26.9 µM) | < 1 | < 1 |  | < 1 | < 1 | 1 to 10 (≈ 2.69 to 26.9 µM) | < 1 | < 1 |  | 
7 | Cc1nc2c(=O)n(C3CC3)c3cc(N4CC[C@H](CN)C4)c(F)cc3c2o1 [Compound 52, 7-[(3R)-3-(aminomethyl)pyrrolidin-1-yl]-5-cyclopropyl-8-fluoro-2-methyl-oxazolo[4,5-c]quinolin-4-one] | 1 to 10 (≈ 2.81 to 28.1 µM) | 10 to 100 (≈ 28.1 to 281 µM) | 1 to 10 (≈ 2.81 to 28.1 µM) | 1 to 10 (≈ 2.81 to 28.1 µM) | 1 to 10 (≈ 2.81 to 28.1 µM) | 1 to 10 (≈ 2.81 to 28.1 µM) | 1 to 10 (≈ 2.81 to 28.1 µM) | 1 to 10 (≈ 2.81 to 28.1 µM) |  | < 1 | 1 to 10 (≈ 2.81 to 28.1 µM) | 10 to 100 (≈ 28.1 to 281 µM) | 1 to 10 (≈ 2.81 to 28.1 µM)

Continued, in another order:

Row | MIC [2] [µg/mL] | MIC [3] [µg/mL] | MIC [4] [µg/mL] | MIC [5, 12] [µg/mL] | MIC [5, 13] [µg/mL] | MIC (S. aureus NRS1 MRSA) [µg/mL] | MIC [6] [µg/mL] | MIC [7] [µg/mL] | MIC [8] [µg/mL] | MIC [9] [µg/mL] | MIC [10] [µg/mL] | Structure (SMILES) | IC50 [1] [µg/mL] | MIC [11] [µg/mL]
8 | 1 to 10 (≈ 2.7 to 27 µM) | > 100 | < 1 | < 1 | < 1 | 1 to 10 (≈ 2.7 to 27 µM) | 10 to 100 (≈ 27 to 270 µM) | 1 to 10 (≈ 2.7 to 27 µM) | < 1 | < 1 | 10 to 100 (≈ 27 to 270 µM) | Cc1nc2c(=O)n(C3CC3)c3c(C)c(-c4ccc5cn[nH]c5c4)ccc3c2o1 [Compound 27, 5-cyclopropyl-7-(l H-indazol-6-yl)-2,6-dimethyl-oxazolo[4,5-c]quinolin-4-one] | 10 to 100 (≈ 27 to 270 µM) | 
9 | < 1 | > 100 | < 1 | < 1 | < 1 | < 1 | < 1 | 1 to 10 (≈ 2.68 to 26.8 µM) | 1 to 10 (≈ 2.68 to 26.8 µM) | < 1 | < 1 | Cc1c(-c2ccc3[nH]ncc3c2)ccc2c3scnc3c(=O)n(C3CC3)c12 [Compound 109, 5-Cyclopropyl-7-(1H-indazol-5-yl)-6-methyl-thiazolo[4,5-c]quinolin-4-one] |  | 
10 | 1 to 10 (≈ 2.62 to 26.2 µM) | 10 to 100 (≈ 26.2 to 262 µM) | < 1 | < 1 | < 1 | < 1 | < 1 | < 1 | < 1 | < 1 | < 1 | Cc1c(-c2cc(F)c(CO)cc2F)ccc2c3ocnc3c(=O)n(C3CC3)c12 [Compound 25, 5-cyclopropyl-7-[2,5-difluoro-4-(hydroxymethyl)phenyl]-6-methyl-oxazolo[4,5-c]quinolin-4-one] | 10 to 100 (≈ 26.2 to 262 µM) | 
11 | > 100 | > 100 | 1 to 10 (≈ 2.68 to 26.8 µM) | < 1 | < 1 | 1 to 10 (≈ 2.68 to 26.8 µM) | 1 to 10 (≈ 2.68 to 26.8 µM) | 1 to 10 (≈ 2.68 to 26.8 µM) | < 1 | 1 to 10 (≈ 2.68 to 26.8 µM) | 1 to 10 (≈ 2.68 to 26.8 µM) | Cc1nc2c(=O)n(C3CC3)c3c(C)c(-c4ccc(C(N)=O)cc4)ccc3c2o1 [Compound 26] | > 100 | 
12 | 10 to 100 (≈ 26.9 to 269 µM) | 1 to 10 (≈ 2.69 to 26.9 µM) | < 1 | < 1 | < 1 | < 1 | < 1 | 1 to 10 (≈ 2.69 to 26.9 µM) | < 1 | < 1 | < 1 | Cc1c(-c2cnc3[nH]nc(N)c3c2)ccc2c3ocnc3c(=O)n(C3CC3)c12 [Compound 21, 7-(3-amino-1H-pyrazolo[3,4-b]pyridine-5-yl)-5-cyclopropyl-6-methyl-oxazolo[4,5-c]quinolin-4-one] | 10 to 100 (≈ 26.9 to 269 µM) | 
